In patent US20220186186A1, “COMPOSITION FOR INDUCING DIRECT CONVERSION OF SOMATIC CELL INTO COMMON MYELOID PROGENITOR AND USE THEREOF” (KOREA INSTITUTE OF SCIENCE AND TECHNOLOGY, priority 2020, published 2022):

Test system: neonatal fibroblasts (HDF-N)
Test: Direct conversion of neonatal fibroblasts to CMP cells, marker expression by flow cytometry (FACS)
Assay type: cell-based, human
Procedure: Human dermal fibroblasts derived from human skin were purchased from ThermoFisher (USA). Human neonatal dermal fibroblasts (HDF-N; neonatal-C0045C) and human adult dermal fibroblasts (HDF-A; adult-C0135C) were purchased, respectively.
To confirm direct conversion potential of fibroblasts to CMP cells, flow cytometry (FACS) analyses were performed. Using the antibodies listed below, expression levels of proteins including the hematopoietic stem cell (HSC) membrane marker CD34, the blood cell membrane marker CD45, and the common myeloid progenitor (CMP) membrane marker CD14, were confirmed. The antibodies used are as follows: • FITC conjugated mouse anti-human CD34 monoclonal antibodies, eBioscience • APC conjugated mouse anti-human CD45 monoclonal antibodies, eBioscience • APC-eFluoro780 conjugated mouse anti-human CD14 monoclonal antibodies, eBioscience
Cells were dissociated into single cells with accutase and then washed with 1% FBS/PBS solution. After treatment with Fc blocker (BD Bioscience) for 10 minutes to prevent non-specific antigen binding, the cells were blocked for 15 minutes using 1% FBS/PBS solution. […] Subsequent to the reaction, the cells were washed twice with cold PBS solution and analyzed by flow cytometry using CytoFLEX by Beckman, and data were analyzed using the CytExpert program. […]

## Cc1cccc(-c2n[nH]cc2-c2ccc3ncccc3n2)n1 [Example 3-1, 2-[3-(6-methylpyridin-2-yl)-1H-pyrazol-4-yl]-1,5-naphthyridine]
28 days, inhibitor alone, Table 3 and FIG. 18
  expression of the blood cell marker CD45: increase
Cultured 28 days in reprogramming media with the chemical composition, Table 3
  CD45-expressing cell (%) compared to negative control group (Cnt): 6.36%
